Source: publication PMC6346638, “Recognition of Peptidoglycan Fragments by the Transpeptidase PBP4 From Staphylococcus aureus” (Frontiers in Microbiology, 2019)
“Also recorded” adds a separate entry of the source. Non-standard residues stand in square brackets, D forms with d. No end group written: not given here.

How the values were obtained:
PBP4 [1] = test: X-ray crystallography, ligand soaking of PBP4 crystals; assay type: binding, Staphylococcus aureus; conditions: soaking with ampicillin and synthetic pentapeptide stem
PBP4(S75C) [2] = test: X-ray crystallography, ligand soaking of PBP4(S75C) crystals; assay type: binding, Staphylococcus aureus; conditions: soak with 1 mM ampicillin and 8 mM pentapeptide, 40–60 min; 1.86 Å
Experimental: PBP4(S75C) was crystallized using the sitting drop vapor diffusion method with streak seeding. Protein at 25–35 mg mL^−1 was added to precipitant solution (8 mM zinc chloride, 80 mM sodium acetate pH 5, 100 mM sodium fluoride, and 16% polyethylene glycol 6000) in a 1:1 (v/v) ratio and incubated at 23°C. Immediately after mixing the protein and precipitant solution, the drops were streak-seeded with a housecat whisker that had been swished through a drop containing PBP4(S75C) crystals. […] Crystals were then promptly harvested and stored in liquid nitrogen.
Data collection was performed under cryogenic temperatures (100 K) at the Advanced Light Source synchrotron (U.C. Berkeley) on beamline 5.0.2. Data from one crystal that diffracted to 1.9 Å resolution were processed using Xia2 (Winter et al., [2013]) and XDS (Kabsch, [2010]) with a space group of C121 and merged with Aimless in the CCP4 software package (Winn et al., [2011]). Phaser (McCoy et al., [2007]) was employed to solve the structure by molecular replacement using PDB ID 5TXI as the starting model. The Phenix suite of programs was used for model generation and refinement (Adams et al., [2010]). Briefly, AutoBuild was used with several iterative rounds of manual manipulation of the model with Coot (Emsley et al., [2010]) followed by refinement with Phenix.refine with TLS being used in the later stages of refinement.

PBP4(S75C) [3] = test: PBP4(S75C) acylation by imipenem, native mass spectrometry; assay type: binding, Staphylococcus aureus; conditions: 1.25 mM imipenem, ~23°C, 30 min, pH 6; MS
Experimental: For mass spectrometry analysis, samples were thawed and diluted 500 times in 5% acetonitrile and 0.1% formic acid. 5 μL of each sample was injected onto a 5-mm C4 column connected to a Waters Xevo GS-2 QTof mass spectrometer via a NanoAquity UPLC system. Samples were eluted in a 2-min gradient from 5 to 100% acetonitrile at a flow rate of 20 μL min^−1. Mass spectra (Supplementary Figure S3) were summed and peak masses deconvoluted using Waters' MassLynx software (V4.1).

PBP4(S75C) [4] = test: Liquid-state NMR titration (15N-BEST-TROSY chemical shift perturbation); assay type: binding, Staphylococcus aureus; conditions: lactoyl-tetrapeptide up to 52 molar equivalents, 326 μM protein; 25°C, 50 mM potassium phosphate pH 6.5
Experimental: NMR Titration Experiments
Interaction studies with ^15N-labeled PBP4(S75C) and different substrates were monitored by superimposition of ^15N-BEST-TROSY spectra at 25°C for different substrate-to-protein ratio. Synthetic peptide stems and peptidoglycan fragments were extensively dialyzed against water using a Spectra/PorTM dialysis membrane with a 100–500 Da cutoff (Spectrum Laboratories, Inc.) and lyophilized before preparation of a few-mM stock solution in the protein buffer, with 50 mM potassium phosphate at pH 6.5. A 326-μM solution of PBP4(S75C) was titrated with 2, 8, 22, and 52 molar equivalents of tetrapeptide. […] CcpNmr was used to monitor protein chemical shift perturbations (CSP) for every assigned amide resonance by superimposition of the ^15N-BEST-TROSY spectra. CSPs (Δδ) were calculated on a per-residue basis for the highest substrate-to-protein ratio as follows:
where γN and γH are the ^1H and ^15N gyromagnetic ratios, respectively, and δ^XPBP4(S75C):sub , and δ^XPBP4(S75C) are the protein resonance chemical shift value in the presence and absence, respectively, of the substrate at the highest ratio.
The following substrates were added at 25 °C on 150 -µM PBP4(S75C) solution
in 50 mM potassium phosphate buffer, pH 6.5: (A) Tetrapeptide at approximately 52 molar […]
overlapped residues, for which CSPs could not be determined.

PBP4 [5] = conditions: 10 μM PBP4, 10 mM Tris/HCl pH 7.5, 10 mM MgCl2, 0.1% Triton X-100, 37°C overnight; HPLC
Experimental: Assays were carried out in a final volume of 50 μL containing 10 mM Tris/HCl at pH 7.5, 10 mM MgCl2, 0.1% Triton X-100, and 10 μM PBP4 or PBP4(S75C). A ~5 mg mL^−1 suspension of PG or 25 μL of a ~5 mg mL^−1 solution of muropeptides were added and the reaction mixture was incubated at 37°C overnight. The enzymatic reaction was stopped by boiling the samples for 10 min. Muropeptides were reduced and analyzed by HPLC as described (Boneca et al., [1997]).

[6] = system: ceftobiprole-resistant Staphylococcus aureus strain (CRB); conditions: pbp4 mutations giving E183A and F241R; ref Banerjee et al., 2010; cited from earlier work
Description: The replacement of E183 by an alanine disrupts the Van-der-Waals interaction between this residue and ...

[7] = system: S. aureus laboratory mutant 27s; conditions: deletion of PBP4 in mutant 27s; ref Leski and Tomasz, 2005; cited from earlier work
Description: S. aureus PBP4 is an unusual class C PBP showing TPase activity in vivo (Loskill et al., [2014]; Hamilton et al., [2017]) and in vitro (Qiao et al., [2014]; Srisuknimit et al., [2017]) in addition to its expected CPase activity.

[8] = molecular target: 15N-labeled PBP4(S75C) from Staphylococcus aureus, His-tag not cleaved (NMR sample) (S. aureus); test: NMR titration; 15N-BEST-TROSY spectra at 25°C; 326 μM 15N-labeled PBP4(S75C) titrated with 2, 8, 22 and 52 molar equivalents of unlabeled tetrapeptide; 50 mM potassium phosphate pH 6.5

HO-D-Lac-L-Ala-D-iGln-[L-Lys(Gly)5]-D-Ala-D-Ala-COOH [pentapeptide, synthetic branched lactoyl-peptide resembling the native S. aureus PG stem]
electron density of soaked ligand, PBP4 crystals (PBP4 [1]): unable to identify electron density | electron density of soaked ligand, PBP4(S75C) crystals (PBP4(S75C) [2]): unable to identify electron density

C[C@@H](O)[C@H]1C(=O)N2C(C(=O)O)=C(SCCN=CN)C[C@H]12 [imipenem]
acylation of PBP4(S75C) (PBP4(S75C) [3]): binds covalently to PBP4S75C, to form a stable acylenzyme; also recorded: sensitive to acylation

HO-D-Lac-L-Ala-D-iGln-L-Lys(Gly)5-D-Ala-COOH [lactoyl-tetrapeptide]
chemical shift perturbations for the amide resonances of PBP4(S75C) (PBP4(S75C) [4]): did not create any significant chemical shift perturbations

disaccharide pentapeptide(Gly5) [disaccharide pentapeptide(Gly5) (peak5)]
DD-CPase activity of PBP4: conversion of monomeric muropeptide (PBP4 [5]): nearly quantitatively converted to disaccharide tetrapeptide(Gly5) (peak A)

Nc1nc(/C(=N/O)C(=O)N[C@@H]2C(=O)N3C(C(=O)O)=C(/C=C4\CCN([C@@H]5CCNC5)C4=O)CS[C@H]23)ns1 [ceftobiprole]
resistance of CRB strain [6]: resistant

CC1(C)S[C@@H]2[C@H](NC(=O)[C@H](N)c3ccccc3)C(=O)N2[C@H]1C(=O)O [ampicillin]
electron density of soaked ligand, PBP4 crystals (PBP4 [1]): unable to identify electron density | electron density of soaked ligand, PBP4(S75C) crystals (PBP4(S75C) [2]): unable to identify electron density

CO/N=C(\C(=O)N[C@@H]1C(=O)N2C(C(=O)O)=CCS[C@H]12)c1csc(N)n1 [ceftizoxime]
susceptibility on deletion of PBP4 [7]: increase in ceftizoxime susceptibility

B1: HO-D-Lac-L-Ala-D-iGln-L-Lys(Gly)5-D-Ala-COOH tetrapeptide (peptide)
chain 1: {HO‑D‑Lac}-A[diGln]K[dA]-OH
chain 2: GGGGG
modifications: not fully specified (some residues); also: chain 2 (Gly)5 attached to Lys side chain
Kd [8]: > 110 mM
